What is called IC50 is the concentration that gives 50% inhibition. A lower IC50 goes with greater potency in that assay.

Drawing on patent publication US9511052B2, “Mineralocorticoid receptor antagonists” (Merck Sharp & Dohme Corp., priority 2012, dated 2016), this text covers IC50 for 21 compounds.

The target in the test is T1, full-length human Mineralocorticoid Receptor (MR) (Homo sapiens, UniProt P08235).
T1 construct: host or cells: PathHunter CHO-K1 MR cells
T1 sequence (P08235 1-984): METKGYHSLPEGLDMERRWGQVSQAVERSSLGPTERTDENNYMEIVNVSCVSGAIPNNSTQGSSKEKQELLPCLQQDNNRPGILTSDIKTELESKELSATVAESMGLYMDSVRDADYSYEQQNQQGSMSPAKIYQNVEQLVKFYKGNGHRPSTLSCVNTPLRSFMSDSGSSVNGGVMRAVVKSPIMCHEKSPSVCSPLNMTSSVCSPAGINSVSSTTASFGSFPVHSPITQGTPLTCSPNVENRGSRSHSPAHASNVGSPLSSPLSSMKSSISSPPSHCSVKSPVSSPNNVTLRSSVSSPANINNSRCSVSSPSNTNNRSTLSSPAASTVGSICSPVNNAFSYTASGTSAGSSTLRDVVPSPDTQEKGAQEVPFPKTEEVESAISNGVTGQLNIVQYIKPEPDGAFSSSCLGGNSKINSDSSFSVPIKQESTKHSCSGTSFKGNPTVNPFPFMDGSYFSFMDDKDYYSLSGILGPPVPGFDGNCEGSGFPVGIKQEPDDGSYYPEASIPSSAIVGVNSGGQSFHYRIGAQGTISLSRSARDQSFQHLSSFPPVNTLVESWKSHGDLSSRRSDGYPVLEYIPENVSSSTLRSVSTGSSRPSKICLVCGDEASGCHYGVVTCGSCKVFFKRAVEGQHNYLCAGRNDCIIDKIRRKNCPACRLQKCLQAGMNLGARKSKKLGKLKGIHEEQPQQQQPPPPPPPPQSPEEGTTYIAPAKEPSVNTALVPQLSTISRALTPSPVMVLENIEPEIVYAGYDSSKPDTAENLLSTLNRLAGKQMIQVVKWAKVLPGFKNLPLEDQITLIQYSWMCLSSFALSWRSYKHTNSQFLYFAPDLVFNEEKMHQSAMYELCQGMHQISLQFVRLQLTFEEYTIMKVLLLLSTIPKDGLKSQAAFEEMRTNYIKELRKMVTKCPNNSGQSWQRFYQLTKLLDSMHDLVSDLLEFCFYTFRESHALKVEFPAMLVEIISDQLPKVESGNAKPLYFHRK
As to the kind of experiment: human MR NH Pro assay (PathHunter Protein:Protein interaction assay), MR antagonism. The class given is cell-based. The conditions noted are these: IP = inflection point of the dose-response curve; CHO-K1 cells overexpressing human MR, aldosterone about 0.3 nM to about 1 nM, 6 hours at 37° C. The source says: The activity of the compounds of the present invention regarding mineralocorticoid receptor antagonism can be evaluated using the following assay.
Assessment of MR Potency in HMR NH Pro Assay
The human MR NH Pro assay is a commercially available PathHunter™ Protein:Protein interaction assay (DiscoveRx; http://www.discoverx.com/nhrs/prod-nhrs.php) that measures the ability of compounds to antagonize full-length human Mineralocorticoid Receptor (MR) binding to a coactivator peptide.
Stock solution was prepared at 10 μM in DMSO and stored at −20° C. for assay, dilute in assay media to 1.8 or 6 nM (6× of final concentration=about 0.3 nM to about 1.0 nM)
5. Cell line: PathHunter CHO-K1 MR cells Cat #93-0456C2, Lot No: 09B0913, from operation liquid nitrogen stock.
6. Control Antagonist: Spironolactone: Sigma #S-3378 and Eplerenone Sigma #107724-20-9 (10 mM stock concentration also prepared in DMSO and stored at −20° C.).
1. Cells are grown in F12+FBS+Hygromycin+pen/strep+Genetin
2. Cells are collected with 0.05% trypsin and the cell suspension is spun and resuspended in a volume of F12+1.5% CD-FBS and counted.
3. The cells concentration was adjusted to 4×10^5 cells/mL.
4. Cells were (25 μL/well) added to the wells of a 384 well plate.
5. The plate was then incubated at 37° C. over night in a humidified incubator with 5% CO2.
6. Test compounds were titrated starting at 4.4 mM, 10-point titration in 1:3 dilution.
Protocol for 384 well plate format: 6 hr treatment:
1. 10K exponentially growing cells/well (25 μL) were resuspended in assay media and plated into each well using the Multidrop (Thermo Electron) (use white wall, clear bottom assay plates (Costar #3570) and incubated overnight at 37° C., 5% CO2.
2. 0.25 μL 120× test compound (final DMSO concentration should be <1%) was added to each well n=2, 10 point titrations starting at 36.7 μM final concentration.
4. 5 μL of assay media was added to all wells in column 23 and 24.
5. Cells were then incubated for 6 hrs at 37° C., 5% CO2.
6. 15 μL 3× DiscoveRx detection reagent was then added to each well.
7. Plates were incubated for 1 hour at room temperature in the dark.
8. Plates were read on Envision (PerkinElmer) luminesence plate reader and analyzed using ADA.

With `CCC(O)C(CC(F)F)(c1ccc(C(F)(F)F)cc1)n1ncc2c(NS(=O)(=O)CC)cccc21` (single isomer, unassigned) [Compound 55, N-(1-(1,1-difluoro-4-hydroxy-3-(4-(trifluoromethyl)phenyl)hexan-3-yl)-1H-indazol-4-yl)ethanesulfonamide], the IC50 is 0.018 µM.
`CCC(O)C(CC(F)F)(c1ccc(C(F)(F)F)cc1)n1ncc2c(NS(C)(=O)=O)cccc21` (single isomer, unassigned) [Compound 39, N-(1-(1,1-difluoro-4-hydroxy-3-(4-(trifluoromethyl)phenyl)hexan-3-yl)-1H-indazol-4-yl)methanesulfonamide] displayed an IC50 of 0.023 µM.
Compound `CCS(=O)(=O)Nc1cccc2c1cnn2C(CC(F)F)(c1ccc(C(F)(F)F)cc1)C(C)O` (single isomer, unassigned) [Compound 57, N-(1-(1,1-difluoro-4-hydroxy-3-(4-(trifluoromethyl)phenyl)pentan-3-yl)-1H-indazol-4-yl)ethanesulfonamide] displayed a concentration for half-maximal inhibition (IC50) of 0.043 µM.
As for `CS(=O)(=O)Nc1cccc2c1cnn2C(CC(F)F)(C(N)=O)c1ccc(C(F)(F)F)cc1` (single isomer, unassigned) [Compound 45, 4,4-difluoro-2-(4-(methylsulfonamido)-1H-indazol-1-yl)-2-(4-(trifluoromethyl)phenyl)butanamide], the IC50 was 0.274 µM.
Then `CCC(c1ccc(C(F)(F)F)cc1)(C(O)C(F)F)n1ncc2c(NS(C)(=O)=O)cc(F)cc21` (single isomer, unassigned) [Compound 52, N-(1-(1,1-difluoro-2-hydroxy-3-(4-(trifluoromethyl)phenyl)pentan-3-yl)-6-fluoro-1H-indazol-4-l) methanesulfonamide], with 0.028 µM.
On to `CCC(O)C(CC)(c1ccc(Br)cc1)n1ncc2c(NS(C)(=O)=O)cccc21` (single isomer, unassigned) [Compound 8, N-(1-(3-(4-bromophenyl)-4-hydroxyhexan-3-yl)-1H-indazol-4-yl)methanesulfonamide], for which the half-inhibitory concentration (IC50) is 1.19 µM.
Regarding `CCC(O)C(CC)(c1ccc(C#N)cc1)n1ncc2c(NS(C)(=O)=O)cccc21` (single isomer, unassigned) [Compound 16, N-(1-(3-(4-cyanophenyl)-4-hydroxyhexan-3-yl)-1H-indazol-4-yl)methanesulfonamide], the IC50 worked out at 0.048 µM.
Then `CCC(O)C(CC)(c1ccc(Br)cc1)n1ncc2c(NS(C)(=O)=O)cccc21` (single isomer, unassigned) [Compound 6, N-(1-(3-(4-bromophenyl)-4-hydroxyhexan-3-yl)-1H-indazol-4-yl)methanesulfonamide], with 0.003 µM; and `CCC(O)C(CC)(c1ccc(C#N)cc1)n1ncc2c(NS(C)(=O)=O)cc(F)cc21` (single isomer, unassigned) [Compound 19], with 0.136 µM.
Then `CCC(c1ccc(C(F)(F)F)cc1)(C(O)C(F)F)n1ncc2c(NS(=O)(=O)CC)cccc21` (single isomer, unassigned) [Compound 50, N-(1-(1,1-difluoro-2-hydroxy-3-(4-(trifluoromethyl)phenyl)pentan-3-yl)-1H-indazol-4-yl)ethanesulfonamide], with 0.004 µM; and `CCC(O)C(CC)(c1ccc(C(F)(F)F)cc1)n1ncc2c(NS(C)(=O)=O)cc(F)cc21` (single isomer, unassigned) [Compound 18, N-(6-fluoro-1-(4-hydroxy-3-(4-(trifluoromethyl)phenyl)hexan-3-yl)-1H-indazol-4-yl)methanesulfonamide], with 0.009 µM; and `CCC(c1ccc(S(F)(F)(F)(F)F)cc1)(C(C)O)n1ncc2c(NS(C)(=O)=O)cccc21` (single isomer, unassigned) [Compound 21, N-(1-{2-hydroxy-3-[4-(pentafluoro-λ^6-sulfanyl)phenyl]pentan-3-yl}-1H-indazol-4-yl)methanesulfonamide], with 0.333 µM.
Compound `CCC(O)C(CC)(c1ccc(S(F)(F)(F)(F)F)cc1)n1ncc2c(NS(C)(=O)=O)cccc21` (single isomer, unassigned) [Compound 26, N-(1-{4-hydroxy-3-[4-(pentafluoro-λ^6-sulfanyl)phenyl]hexan-3-yl}-1H-indazol-4-yl)methanesulfonamide] registered an IC50 of 1.13 µM.
Compound `CCC(c1ccc(Br)cc1)(C(C)O)n1ncc2c(NS(C)(=O)=O)cccc21` (single isomer, unassigned) [Compound 4, N-(1-(3-(4-bromophenyl)-2-hydroxypentan-3-yl)-1H-indazol-4-yl) methanesulfonamide] registered an IC50 of 0.728 µM.
Consider `CCC(c1ccc(S(F)(F)(F)(F)F)cc1)(C(C)O)n1ncc2c(NS(C)(=O)=O)cccc21` (single isomer, unassigned) [Compound 23, N-(1-{2-hydroxy-3-[4-(pentafluoro-λ^6-sulfanyl)phenyl]pentan-3-yl}-1H-indazol-4-yl)methanesulfonamide], for which inhibition was half-maximal at 4.74 µM (IC50).
Take `CCC(c1ccc(C(F)(F)F)cc1)(C(O)C(F)F)n1ncc2c(NS(=O)(=O)CC)cc(F)cc21` (single isomer, unassigned) [Compound 54, N-(1-(1,1-difluoro-2-hydroxy-3-(4-(trifluoromethyl)phenyl)pentan-3-yl)-6-fluoro-1H-indazol-4-l)ethanesulfonamide]: the IC50 came to 0.012 µM.
Turning to `CCC(O)C(CC)(c1ccc(C(F)(F)F)cc1)n1ncc2c(NS(C)(=O)=O)cccc21` (single isomer, unassigned) [Compound 10, N-(1-(4-hydroxy-3-(4-(trifluoromethyl)phenyl)hexan-3-yl)-1H-indazol-4-yl)methanesulfonamide], it took 0.005 µM to reach half-maximal inhibition (IC50).
Then `CCC(C(N)=O)(c1ccc(C(F)(F)F)cc1)n1ncc2c(NS(C)(=O)=O)cccc21` (single isomer, unassigned) [Compound 12, 2-(4-(methylsulfonamido)-1H-indazol-1-yl)-2-(4-(trifluoromethyl)phenyl) butanamide], with 0.139 µM; and `CCC(c1ccc(C(F)(F)F)cc1)(C(C)O)n1ncc2c(NS(C)(=O)=O)cc(F)cc21` (single isomer, unassigned) [Compound 33, N-(6-fluoro-1-(2-hydroxy-3-(4-(trifluoromethyl)phenyl)pentan-3-yl)-1H-indazol-4-yl)methanesulfonamide], with 1.11 µM.
Then `CCC(O)C(CC(F)F)(c1ccc(C(F)(F)F)cc1)n1ncc2c(NS(C)(=O)=O)cccc21` (single isomer, unassigned) [Compound 40, N-(1-(1,1-difluoro-4-hydroxy-3-(4-(trifluoromethyl)phenyl)hexan-3-yl)-1H-indazol-4-yl)methanesulfonamide], with 0.015 µM; and `CCC(O)C(CC(F)F)(c1ccc(C(F)(F)F)cc1)n1ncc2c(NS(C)(=O)=O)cccc21` (single isomer, unassigned) [Compound 42, N-(1-(1,1-difluoro-4-hydroxy-3-(4-(trifluoromethyl)phenyl)hexan-3-yl)-1H-indazol-4-yl)methanesulfonamide], with 1.37 µM.
